Columns and labels:
Type in all cases: cell-based, human
[1] = test system: MCF-7 and Ect1/E6E7 cells; assay: Wound healing assay, cells lacking integrin α3β1; settings: 10-200 µM, 48 hr
Experimental: Healthy cells were seeded in 96-well Image Lock plates (Essen Bioscience, UK). Each well contained 2 ×10^4 to 5 × 10^4 cells in 100 μL of complete cell culture medium. Cell monolayer with approximately 90% confluence formed after 12 hr and cells were next starved in serum-free culture medium for 12 hrs. Homogenous scratch wounds with a width of about 700 μm were made by an Essen BioScienceWound Maker. The detached cells were washed with Dulbecco’s Buffered Saline (DPBS, Gibco) 3 times. Cells were incubated with 100 μL of culture medium containing 0.5 % FBS and desired concentration of each peptide. Wound closure was monitored by an IncucyteS3 (Essen Bioscience) with a 10x objective. Images for each well were acquired every 2 hr to 8 hr for 2 days or until the wounds were closed completely. The wound healing rate was quantified by Incucyte Scratch Wound Analysis Module (Essen Bioscience). The experiments were repeated at least 3 times, and the results were presented as mean ± standard deviation of at least 3 independent experiments.

[2] = test system: FAK Y397 phosphorylation in HuH-7 cells; assay: Western blotting FAK / pY397 FAK
[3] = test system: paxillin Y118 phosphorylation in HuH-7 cells; assay: Western blotting Paxillin / pY118 Paxillin
Experimental: Protein lysates were prepared in ice-cold RIPA lysis, and extraction buffer (Thermo Scientific) supplemented with 1% Halt Protease Inhibitor (Thermo Scientific) and 1% Halt Phosphatase inhibitor (Thermo Scientific). Cells were scraped off from the culture surface using a cold plastic cell scraper, and the cell suspension was then gently transferred into a pre-cooled microcentrifuge tube and maintained on ice for 30 min with constant agitation before centrifuged at 21000 × g for 20 min. The supernatant was then transferred to a new tube, and the protein concentration of the supernatant was quantified according to the Pierce™ BCA Protein Assay Kit (Thermo Scientific). The rest of the supernatant was mixed with 4x laemmli sample buffer (Bio-Rad) in a 1:3 ratio and boiled at 100 °C for 10 min. Lysates can be aliquoted and stored at −80 °C freezer. When running the gel, 30 μg of protein was loaded into each well of the SDS-PAGE gels, along with a molecular weight marker (Bio-Rad). The gel was run for 2 hr at constantly 100 V to separate the proteins based on the molecular weight. The proteins were then transferred from the SDS-gel to a PVDF membrane (Bio-Rad) using a Transfer-blot turbo system (Bio-Rad). Once the membranes were blocked with Blocking One P solution (Nacalai) for 20 min at room temperature with gentle shaking, they were probed with antibodies against GAPDH (6C5, ab8245, Abcam, 1:1000), integrin beta 1 (12G10, ab30394, Abcam, 1:100), integrin alpha 3 (ASC-1, MA5-28565, Invitrogen, 1:100), integrin alpha 6 (EPR18124, ab191551, Abcam, 1:200), Phospho-Myosin Light Chain 2 (Thr18/Ser19)(pMLC, #3647, Cell Signaling Technology, 1:200) diluted in Tris-Buffered Saline containing 0.1% Tween-20 and 5% Blocking one P solution and the membrane was incubated in the dark for overnight at 4 °C with gentle shaking. The unbounded antibodies were washed out with tris-buffered saline (TBS) containing 0.1% Tween-20 (TBS- T) for 10 min for at least 6 times. […] Protein bands were quantified by measuring peak areas using ImageJ. […]

[4] = test system: Phospho-Myosin Light Chain 2 (Thr18/Ser19) (pMLC) in HuH-7 cells; assay: Western blotting pMLC; settings: relative to Ctrl = 1, 12 hr, representative blot
Experimental: Protein lysates were prepared in ice-cold RIPA lysis, and extraction buffer (Thermo Scientific) supplemented with 1% Halt Protease Inhibitor (Thermo Scientific) and 1% Halt Phosphatase inhibitor (Thermo Scientific). Cells were scraped off from the culture surface using a cold plastic cell scraper, and the cell suspension was then gently transferred into a pre-cooled microcentrifuge tube and maintained on ice for 30 min with constant agitation before centrifuged at 21000 × g for 20 min. The supernatant was then transferred to a new tube, and the protein concentration of the supernatant was quantified according to the Pierce™ BCA Protein Assay Kit (Thermo Scientific). The rest of the supernatant was mixed with 4x laemmli sample buffer (Bio-Rad) in a 1:3 ratio and boiled at 100 °C for 10 min. Lysates can be aliquoted and stored at −80 °C freezer. When running the gel, 30 μg of protein was loaded into each well of the SDS-PAGE gels, along with a molecular weight marker (Bio-Rad). The gel was run for 2 hr at constantly 100 V to separate the proteins based on the molecular weight. The proteins were then transferred from the SDS-gel to a PVDF membrane (Bio-Rad) using a Transfer-blot turbo system (Bio-Rad). […] Protein bands were quantified by measuring peak areas using ImageJ. […]

HuH-7 cells [5] = assay: Cell spreading evaluation (phalloidin staining)
Experimental: All microscope imaging was performed with a Zeiss LSM 780 or Olympus SD-OSR. To assess the F-actin organization after certain treatments, cells were seeded on a glass-bottom culture dish (D11130H, Matsunami). After culture with the peptides, cells were fixed with 4% paraformaldehyde phosphate buffer solution (PFA, 30525-89-4, Wako) for 10 min at room temperature, washed, and permeabilized with 0.1% Triton X-100 (Sigma) in PBS for 15 min. Cells were washed with DPBS twice and incubated with ActinRed (Rhodamine-conjugated phalloidin, R37112, Invitrogen) or ActinGreen (Alexa-Fluor-488-conjugated phalloidin, R37110, Invitrogen) for 15 min at room temperature. Cells were washed with DPBS before being imaged. Morphological characteristics, including cell spreading area and perimeter area ratio, were quantified by Image J.

HuH-7 cells [6] = assay: Morphodynamics analysis (edge velocity); settings: for Retraction velocity / Protrusion velocity: median
Experimental: The whole-cell morphodynamics maps were generated using the open-source ImageJ plugin “ADAPT”[46]. The analyses were done on the maximum intensity projection of 5.5-µm stack images of mRuby-Lifeact-7 transfected HuH-7 cells pretreated with peptides for 12 hr. A spinning-disk confocal (Olympus SD-OSR) equipped with the camera Prime BSI sCMOS camera and a 100×/1.35 Silicon UPlanSApo objective was used to obtain the images every 2 min. All velocity values are directly measured using the plugin and plotted using GraphPad Prism. Briefly, the fluorescent images were Gaussian filtered to suppress noise and then a gray-level threshold was applied to create a binary image. The cell boundary was taken as pixels bordering segmented regions and the resulting segmentation is used as the seed for the region-growing algorithm in the next frame. […] The change in gray level was used to calculate the membrane velocity at each point and for a better visual representation, the resulting velocity map images (around 10000 × 100 pixels) were stretched to optimize visualization. […]

[7] = relative to Ctrl = 1, 12 hr, representative blot
[8] = vin258-transfected HuH-7, 12 hr, n = 51 cells, mean
[9] = entire periphery, HuH-7, pretreated 12 hr, violin plot
[10] = vin258-transfected HuH-7, 12 hr, n = 10 cells

“FFFIKLLI [assembling ligand: FFF coupled to the N-terminus of IKLLI; self-assembles into nanofilaments]” was tested, and the “effect on cell migration” value [1] was “negligible influence”, the “FAK Y397 phosphorylation” value ([2]; HuH-7, 12 hr, n = 9) was “reduction” and the FAK band [2, 7] was 0.87. The pY397FAK band [2, 7] was 0.34, the “paxillin Y118 phosphorylation” value ([3]; HuH-7, 12 hr, n = 9) was “reduction” and the Paxillin band [3, 7] was 1.01. For the same sequence, the pY118Paxillin band [3, 7] was 0.34, the pMLC band [4] was 0.17 and the “Perimeter / Area” value (HuH-7 cells [5]; Tiam1/Rac1-preactivated HuH-7, 12 hr, n = 64 cells, p = 0.5635 vs Ctrl) was 0.1130 µm-1. The Spreading area (HuH-7 cells [5]; Tiam1/Rac1-preactivated HuH-7, 12 hr, n = 64 cells, p = 0.8317 vs Ctrl) was 4496 µm2, the “Spreading area” value (HuH-7 cells [5]; glass, FN or LM-5 coated dish (order not readable), 12 hr, value 2) was 1802 µm2 and the “Spreading area” value (HuH-7 cells [5]; glass, FN or LM-5 coated dish (order not readable), 12 hr, value 3) was 1763 µm2. For the same sequence, the “Perimeter / Area” value (HuH-7 cells [5]; [8]) was 0.2881 µm-1, the Spreading area (HuH-7 cells [5]; [8]) was 2047 µm2 and the “trailing edge retraction and leading-edge protrusion” value (HuH-7 cells [6]; HuH-7, FFFIKLLI 100 μM, 12 h) was “restricted both trailing edge retraction and leading-edge protrusion”. The Retraction velocity (HuH-7 cells [6]; Tiam1/Rac1-activated HuH-7, 12 hr, n = 7, 8 cells) was 0.035 µm/min, the Protrusion velocity (HuH-7 cells [6]; [9]) was 0.0072 µm/min and the Retraction velocity (HuH-7 cells [6]; [9]) was 0.0076 µm/min. It also gave a Protrusion velocity (HuH-7 cells [6]; [10]) of 0.0086 µm/min and a Retraction velocity (HuH-7 cells [6]; [10]) of 0.0080 µm/min.

From PMC9411606, “Control cell migration by engineering integrin ligand assembly” (Nature Communications, 2022)
